Measurements taken from patent US20210053957A1, “HERBICIDAL COMPOUNDS” (SYNGENTA PARTICIPATIONS AG, priority 2018, published 2021).
Where a name gives a salt, the structure may show the parent alone.

Tests used:
Assay in all cases: Post-emergence efficacy, glasshouse spray test
Format in all cases: in vivo
[1] = system: Digitaria sanguinalis (DIGSA); details: Digitaria sanguinalis, post-emergence, 312 h; Application Rate 500 g/Ha; evaluated after 13 days; read-out: Control of weed species after post-emergence application, DIGSA (100=total damage to plant; 0=no damage to plant)
Outline: (§1)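 Visual damage rating (0 = no damage, 100 = total damage) taken 13 days after a post-emergence spray. Plants had grown 14 days in pots under 24/16° C, 14 h light, 65% humidity before treatment.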

[2] = system: Ipomoea hederacea (IPOHE); details: Ipomoea hederacea, post-emergence, 312 h; Application Rate 500 g/Ha; evaluated after 13 days; read-out: Control of weed species after post-emergence application, IPOHE (100=total damage to plant; 0=no damage to plant)
Outline: as §1

[3] = system: Lolium perenne (LOLPE); details: Lolium perenne, post-emergence, 312 h; Application Rate 500 g/Ha; evaluated after 13 days; read-out: Control of weed species after post-emergence application, LOLPE (100=total damage to plant; 0=no damage to plant)
Outline: as §1

[4] = system: Euphorbia heterophylla (EPHHL); details: Euphorbia heterophylla, post-emergence, 312 h; Application Rate 500 g/Ha; evaluated after 13 days; read-out: Control of weed species after post-emergence application, EPHHL (100=total damage to plant; 0=no damage to plant)
Outline: as §1

[5] = system: Eleusine indica (ELEIN); details: Eleusine indica, post-emergence, 312 h; Application Rate 500 g/Ha; evaluated after 13 days; read-out: Control of weed species after post-emergence application, ELEIN (100=total damage to plant; 0=no damage to plant)
Outline: as §1

[6] = system: Echinochloa crus-galli (ECHCG); details: Echinochloa crus-galli, post-emergence, 312 h; Application Rate 500 g/Ha; evaluated after 13 days; read-out: Control of weed species after post-emergence application, ECHCG (100=total damage to plant; 0=no damage to plant)
Outline: as §1

[7] = system: Chenopodium album (CHEAL); details: Chenopodium album, post-emergence, 312 h; Application Rate 500 g/Ha; evaluated after 13 days; read-out: Control of weed species after post-emergence application, CHEAL (100=total damage to plant; 0=no damage to plant)
Outline: as §1

[8] = system: Amaranthus palmeri (AMAPA); details: Amaranthus palmeri, post-emergence, 312 h; Application Rate 500 g/Ha; evaluated after 13 days; read-out: Control of weed species after post-emergence application, AMAPA (100=total damage to plant; 0=no damage to plant)
Outline: as §1

[9] = system: Setaia fabei (SETFA); details: Setaria faberi, post-emergence, 312 h; Application Rate 500 g/Ha; evaluated after 13 days; read-out: Control of weed species after post-emergence application, SETFA (100=total damage to plant; 0=no damage to plant)
Outline: as §1

SMILES | pest or weed control at 500 g/ha [1] [%] | pest or weed control at 500 g/ha [2] [%] | pest or weed control at 500 g/ha [3] [%] | pest or weed control at 500 g/ha [4] [%] | pest or weed control at 500 g/ha [5] [%] | pest or weed control at 500 g/ha [6] [%] | pest or weed control at 500 g/ha [7] [%] | pest or weed control at 500 g/ha [8] [%] | pest or weed control at 500 g/ha [9] [%]
O=S(=O)([O-])CC[n+]1ccc(-c2nc(C(F)(F)F)co2)cn1 [Compound A57] | 70 | 60 | 50 | 90 | 60 | 80 | 100 | 100 | 60
Cc1nnc(-c2cc[n+](CCC(=O)O)nc2)o1 [Compound A140] | 70 | 0 | 10 | 0 | 90 | 20 | 0 | 10 | 70
Cn1nncc1-c1cc[n+](CCS(=O)(=O)[O-])nc1 [Compound A49] | 70 | 70 | 40 | 90 | 60 | 60 | 100 | 100 | 60
O=S(=O)([O-])OCC[n+]1ccc(-c2ncno2)cn1 [Compound A8, 2-[4-(1,2,4-oxadiazol-5-yl)pyridazin-1-ium-1-yl]ethyl sulfate] | 50 | 30 | 10 | 30 | 20 | 50 | 10 | 10 | 40
Cc1coc(-c2cc[n+](CCOS(=O)(=O)[O-])nc2)n1 [Compound A134] | 60 | 50 | 40 | 70 | 80 | 70 | 30 | 90 | 70
O=S(=O)([O-])CC[n+]1ccc(-c2ccoc2)cn1 [Compound A42] | 20 | 20 | 0 | 30 | 20 | 10 | 40 | 20 | 10
O=C(O)C[n+]1ccc(-c2ncco2)cn1 [Compound A71] | 90 | 60 | 80 | 90 | 100 | 100 | 90 | 100 | 90
Cn1cnc(-c2cc[n+](CCCS(=O)(=O)[O-])nc2)n1 [Compound A117] | 80 | 30 | 40 | 70 | 20 | 70 | 20 | 40 | 90
